Reference: article PMC11227536, “Modulation of the Meisenheimer complex metabolism of nitro-benzothiazinones by targeted C-6 substitution” (Communications Chemistry, 2024)
Values after ≈ are worked out from the molar mass of the structure shown.

What was measured:
Cytotoxicity assay = format: cell-based; conditions: human, n = 4
Procedure: (§1) Supplementary Method 5: Biological Assays […]
(§2) 2. Proliferation and cytotoxicity assay
(§3) Cells and culture conditions
(§4) The following cell lines and media were used:
(§5) Cell line Cell culture medium
(§6) Cells were grown in the appropriate cell culture medium supplemented with 10 mL/L ultraglutamine 1 […]
(§7) heat inactivated fetal bovine serum (GIBCO Life Technologies 10270-106) at 37 °C in 5% CO 2 in high density polyethylene flasks (NUNC 156340).
(§8) To decide if the compounds have an antiproliferative and/or a cytotoxic effect on human cells, cell death and retardation of cell proliferation were assessed. Under our experimental conditions, the optical density measured from the CellTiter-Blue® reagent and methylene blue assay is proportional to the […]
(§9) The test substances were dissolved in DMSO and further diluted in the cell culture medium. The adherent cells were harvested at the logarithmic growth phase after soft trypsinization using 0.25% trypsin in PBS containing 0.02% EDTA (Biochrom KG L2163). For each experiment, approximately 10,000 cells were seeded with 0.1 mL culture medium per well of the 96-well microplates (HUVEC: flat bottomed NUNC 167008, K-562: round bottomed NUNC 163320). […]
For the cytotoxicity assay, HeLa cells were preincubated for 48 hours without the test substances. To test the cytotoxic effect on HeLa, dilutions of the compounds were carried out carefully on the subconfluent monolayers of HeLa cells after the preincubation time. After incubation time, the cytolytic effect of compounds was analysed in comparison to the negative control. The 50% cytotoxic concentration (CC 50 ) was defined as the test compound concentration required for destruction of the cell monolayer by 50% compared to untreated control.
(§10) Cells were incubated with dilutions of the test substances in microplates for 72 hours at 37 °C in a humidified atmosphere and 5% CO 2. […]
(§11) cytotoxicity and the inhibition of cell proliferation. The number of viable cells was determined subsequent to staining with CellTiter-Blue® reagent or methylene blue. […]
(§12) HUVEC and HeLa cells: The adherent HUVEC and HeLa cells were fixed by glutaraldehyde (MERCK […]
(§13) gently washing, the stain was eluted by adding 0.2 mL of hydrochloric acid (0.33 M) to each well. The optical densities were measured at 660 nm (methylene blue) in SUNRISE microplate reader (TECAN).
(§14) General remarks: Signals from the methylene blue and CellTiter-Blue® reagent are proportional to the number of viable cells. A repeat determination has been conducted in all experiments, four replicates were assayed. The calculations of the different values of GI 50 and CC 50 were performed with the software

[1] = tested on: Mycobacterium smegmatis (JMRC:STH:00056); test: MIC determination; format: cell-based; conditions: Mycolicibacterium smegmatis; n = 1
Procedure: (§15) Supplementary Method 5: Biological Assays
Minimal inhibitory concentrations were determined against Mycobacterium vaccae (JMRC:STI:10670) and Mycobacterium smegmatis (JMRC:STH:00056). M. vaccae and M. smegmatis cultures were grown 48 h at 32 °C in a medium consisting of glycerol (1%), beef extract (0.5%), peptone from casein (0.5%) and sodium chloride (0.3%). Serial dilutions of the DMSO test item solutions (1 mg∙mL -1) were prepared at 100 µL scale in 96 well plates in Mueller Hinton broth starting at 200 µg∙mL -1 (highest) to cover a final concentration range of 100 to 0.05 µg∙mL -1. Each plate was equipped with a series of DMSO and ciprofloxacin dilutions as quality controls. 96 well plates were inoculated with 100 µL diluted culture (Mueller Hinton bullion) at a final concentration of 5∙10 5 and incubated at 37 °C for 42 h. Growth/no growth was visually inspected. […]

[2] = design: method as in PMID 28097740; conditions: preclinical studies ref 12; cited from earlier work
K-562 = test: Proliferation assay; format: cell-based; conditions: Homo sapiens, K562; 72 h, n = 4
Procedure: as §1, §2, §3, §4, §5, §6, §7, §8
as §9, with “163320). To test the antiproliferative” for “163320).”
(§16) effect of test compounds on HUVEC and K-562, the cells were incubated for 72 hours in plates prepared with control and different dilutions of test substances. […]
(§17) of proliferation compared to the untreated control. […]
as §10
cytotoxicity and the inhibition of cell proliferation. The number of viable cells was determined subsequent to staining with CellTiter-Blue® reagent or methylene blue.
K-562 cells: The influence of test substances on cell proliferation of K-562 was determined via the CellTiter-Blue® assay (PROMEGA). Briefly, viable cells are able to reduce the indicator dye resazurin […]
dye. Thus, formation of resorufin was followed by measuring absorption at 570 nm and subtracting absorption measured at 600 nm. […]
as §14

[3] = tested on: Mycobacterium vaccae (JMRC:STI:10670); test: MIC determination; format: cell-based; conditions: for MIC: Mycolicibacterium vaccae, n = 1; for Selectivity index: ratio between CC50 (HeLa) and MIC M. vaccae
Procedure: as §15
Minimal inhibitory concentrations were determined against Mycobacterium vaccae (JMRC:STI:10670) and Mycobacterium smegmatis (JMRC:STH:00056). M. vaccae and M. smegmatis cultures were grown 48 h at 32 °C in a medium consisting of glycerol (1%), beef extract (0.5%), peptone from casein (0.5%) and sodium chloride (0.3%). Serial dilutions of the DMSO test item solutions (1 mg∙mL -1) were prepared at 100 µL scale in 96 well plates in Mueller Hinton broth starting at 200 µg∙mL -1 (highest) to cover a final concentration range of 100 to 0.05 µg∙mL -1. Each plate was equipped with a series of DMSO and ciprofloxacin dilutions as quality controls. 96 well plates were inoculated with 100 µL diluted culture (Mueller Hinton bullion) at a final concentration of 5∙10 5 and incubated at 37 °C for 42 h. Growth/no growth was visually inspected.
as §2, §3, §4, §5, §6, §7, §8
(§18) The test substances were dissolved in DMSO and further diluted in the cell culture medium. The adherent cells were harvested at the logarithmic growth phase after soft trypsinization using 0.25% trypsin in PBS containing 0.02% EDTA (Biochrom KG L2163). For each experiment, approximately 10,000 cells were seeded with 0.1 mL culture medium per well of the 96-well microplates (HUVEC: flat bottomed NUNC 167008, K-562: round bottomed NUNC 163320). To test the antiproliferative

HUVEC = test: Proliferation assay; format: cell-based; conditions: Homo sapiens, 72 h, n = 4
Procedure: as §1, §2, §3, §4, §5, §6, §7, §8
as §18, with “antiproliferative […]” for “antiproliferative”
as §16, §17, §10, §11, §12, §13, §14

Row | Structure (SMILES) | CC50 at 72 h (Cytotoxicity assay) | MIC [1] | HMC formation in vivo (in words) [2] | GI50 (K-562) | MIC [3] | Selectivity index [3] | GI50 (HUVEC)
1 | C[C@H]1COC2(CCN(c3nc(=O)c4cc(C(F)(F)F)cc([N+](=O)[O-])c4s3)CC2)O1 [Compound 1, reference compound] | > 116 µM | 0.058 µM (≈ 0.025 µg/mL) | significant hydride-Meisenheimer complex (HMC) formation in vivo | > 116 µM | 0.004 µM (≈ 0.00173 µg/mL) | > 31248 | > 116 µM
2 | CCOC(=O)c1cc([N+](=O)[O-])c2sc(N3CCC4(CC3)OC[C@H](C)O4)nc(=O)c2c1 [Compound 6b] | > 115 µM | 57.4 µM (≈ 25 µg/mL) | – | 50.7 ± 6.9 µM | 1.79 µM (≈ 0.779 µg/mL) | > 64 | 49.1 ± 1.1 µM
3 | C[C@H]1COC2(CCN(c3nc(=O)c4cc(C(=O)OCCO)cc([N+](=O)[O-])c4s3)CC2)O1 [Compound 6d] | > 111 µM | 55.4 µM (≈ 25 µg/mL) | – | 17.9 ± 1.1 µM | 13.8 µM (≈ 6.23 µg/mL) | > 8 | 73.3 ± 4.2 µM
4 | C[C@H]1COC2(CCN(c3nc(=O)c4cc(C(=O)OCCI)cc([N+](=O)[O-])c4s3)CC2)O1 [Compound 6e] | 78.2 ± 1.4 µM | 44.5 µM (≈ 25 µg/mL) | – | 27.6 ± 0.9 µM | 2.78 µM (≈ 1.56 µg/mL) | 28 | 30.8 ± 0.5 µM
5 | C[C@H]1COC2(CCN(c3nc(=O)c4cc(C(=O)OCCOC(=O)c5cc([N+](=O)[O-])c6sc(N7CCC8(CC7)OC[C@H](C)O8)nc(=O)c6c5)cc([N+](=O)[O-])c4s3)CC2)O1 [Compound 6f] | > 59.4 µM | 119 µM (≈ 100 µg/mL) | – | > 59 µM | 14.9 µM (≈ 12.5 µg/mL) | > 4 | > 59 µM
6 | C[C@H]1COC2(CCN(c3nc(=O)c4cc(C(N)=O)cc([N+](=O)[O-])c4s3)CC2)O1 [Compound 7a] | > 123 µM | 123 µM (≈ 50 µg/mL) | – | > 123 µM | 61.5 µM (≈ 25 µg/mL) | > 2 | > 123 µM
7 | CNC(=O)c1cc([N+](=O)[O-])c2sc(N3CCC4(CC3)OC[C@H](C)O4)nc(=O)c2c1 [Compound 7b] | > 119 µM | 119 µM (≈ 50 µg/mL) | – | > 119 µM | 59.5 µM (≈ 25 µg/mL) | > 2 | > 119 µM
8 | C[C@H]1COC2(CCN(c3nc(=O)c4cc(C(=O)NCCO)cc([N+](=O)[O-])c4s3)CC2)O1 [Compound 7d] | > 111 µM | 111 µM (≈ 50 µg/mL) | – | > 111 µM | 27.7 µM (≈ 12.5 µg/mL) | > 4 | > 111 µM
9 | C[C@H]1COC2(CCN(c3nc(=O)c4cc(C5=NCCO5)cc([N+](=O)[O-])c4s3)CC2)O1 [Compound 7e] | > 116 µM | 28.9 µM (≈ 12.5 µg/mL) | – | > 116 µM | 14.5 µM (≈ 6.27 µg/mL) | > 8 | > 116 µM
